Test results: ChEMBL document CHEMBL5465560, “Selectivity Literature for EUbOPEN Chemogenomic Library” (2024)

What was measured:
[1] = target: T1, Serine/threonine-protein kinase DCLK3 (Homo sapiens) (UniProt Q9C098); conditions: at 10 µM
T1 sequence (whole entry): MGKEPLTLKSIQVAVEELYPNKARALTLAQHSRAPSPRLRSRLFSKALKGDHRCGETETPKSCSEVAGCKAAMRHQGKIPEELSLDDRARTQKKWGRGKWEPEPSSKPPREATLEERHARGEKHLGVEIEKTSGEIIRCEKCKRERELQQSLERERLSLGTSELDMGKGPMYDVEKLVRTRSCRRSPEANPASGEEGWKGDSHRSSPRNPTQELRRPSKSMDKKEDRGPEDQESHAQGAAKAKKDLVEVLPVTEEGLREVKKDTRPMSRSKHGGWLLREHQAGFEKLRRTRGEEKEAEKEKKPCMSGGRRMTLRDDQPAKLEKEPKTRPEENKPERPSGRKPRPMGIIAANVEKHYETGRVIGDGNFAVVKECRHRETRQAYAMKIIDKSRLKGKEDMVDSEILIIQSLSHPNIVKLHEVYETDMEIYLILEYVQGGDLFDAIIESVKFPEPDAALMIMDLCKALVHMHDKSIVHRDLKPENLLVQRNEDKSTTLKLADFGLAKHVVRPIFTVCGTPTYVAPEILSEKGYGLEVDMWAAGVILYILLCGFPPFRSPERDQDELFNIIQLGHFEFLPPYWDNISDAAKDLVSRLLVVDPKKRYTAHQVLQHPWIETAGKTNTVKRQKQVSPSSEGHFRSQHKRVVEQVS

[2] = target: T2, Serine/threonine-protein kinase ULK2 (Homo sapiens) (UniProt Q8IYT8); test: Selectivity interaction (LanthaScreen Eu Kinase Binding Assay) EUB0001632a ULK2; conditions: at 10 µM
T2 sequence (whole entry): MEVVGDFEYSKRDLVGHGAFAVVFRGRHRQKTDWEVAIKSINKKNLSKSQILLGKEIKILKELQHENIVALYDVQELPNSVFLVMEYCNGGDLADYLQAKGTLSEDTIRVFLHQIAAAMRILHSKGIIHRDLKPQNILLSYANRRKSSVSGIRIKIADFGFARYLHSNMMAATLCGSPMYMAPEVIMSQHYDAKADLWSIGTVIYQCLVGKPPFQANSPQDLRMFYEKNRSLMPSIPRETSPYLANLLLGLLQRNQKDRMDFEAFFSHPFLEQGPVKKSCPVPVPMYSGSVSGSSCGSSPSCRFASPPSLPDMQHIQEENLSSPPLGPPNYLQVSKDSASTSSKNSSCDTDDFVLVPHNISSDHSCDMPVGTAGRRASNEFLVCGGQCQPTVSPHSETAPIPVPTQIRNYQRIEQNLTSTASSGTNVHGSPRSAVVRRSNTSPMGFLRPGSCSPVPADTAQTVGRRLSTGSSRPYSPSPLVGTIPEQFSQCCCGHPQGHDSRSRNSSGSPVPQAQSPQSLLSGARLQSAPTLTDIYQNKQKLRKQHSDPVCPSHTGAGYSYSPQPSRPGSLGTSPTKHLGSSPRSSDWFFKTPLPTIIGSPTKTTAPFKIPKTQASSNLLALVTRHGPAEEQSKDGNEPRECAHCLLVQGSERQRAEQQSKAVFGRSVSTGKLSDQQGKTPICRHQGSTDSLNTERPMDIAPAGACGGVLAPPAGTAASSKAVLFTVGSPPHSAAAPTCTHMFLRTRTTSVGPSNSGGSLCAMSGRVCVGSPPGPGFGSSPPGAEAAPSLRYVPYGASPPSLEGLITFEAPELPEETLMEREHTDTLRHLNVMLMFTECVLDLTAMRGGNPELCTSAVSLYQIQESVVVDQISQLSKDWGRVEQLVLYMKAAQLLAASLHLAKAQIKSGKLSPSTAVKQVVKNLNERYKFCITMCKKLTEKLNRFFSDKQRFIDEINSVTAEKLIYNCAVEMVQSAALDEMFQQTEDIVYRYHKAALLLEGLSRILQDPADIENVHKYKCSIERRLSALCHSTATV

[3] = target: T3, Serine/threonine-protein kinase Nek1 (Homo sapiens) (UniProt Q96PY6); test: Selectivity interaction (ActivX KiNativ screen (kinase selectivity in THP-1 cell lysates)) EUB0000639a NEK1; assay type: subcellular; conditions: lysate
T3 sequence (whole entry): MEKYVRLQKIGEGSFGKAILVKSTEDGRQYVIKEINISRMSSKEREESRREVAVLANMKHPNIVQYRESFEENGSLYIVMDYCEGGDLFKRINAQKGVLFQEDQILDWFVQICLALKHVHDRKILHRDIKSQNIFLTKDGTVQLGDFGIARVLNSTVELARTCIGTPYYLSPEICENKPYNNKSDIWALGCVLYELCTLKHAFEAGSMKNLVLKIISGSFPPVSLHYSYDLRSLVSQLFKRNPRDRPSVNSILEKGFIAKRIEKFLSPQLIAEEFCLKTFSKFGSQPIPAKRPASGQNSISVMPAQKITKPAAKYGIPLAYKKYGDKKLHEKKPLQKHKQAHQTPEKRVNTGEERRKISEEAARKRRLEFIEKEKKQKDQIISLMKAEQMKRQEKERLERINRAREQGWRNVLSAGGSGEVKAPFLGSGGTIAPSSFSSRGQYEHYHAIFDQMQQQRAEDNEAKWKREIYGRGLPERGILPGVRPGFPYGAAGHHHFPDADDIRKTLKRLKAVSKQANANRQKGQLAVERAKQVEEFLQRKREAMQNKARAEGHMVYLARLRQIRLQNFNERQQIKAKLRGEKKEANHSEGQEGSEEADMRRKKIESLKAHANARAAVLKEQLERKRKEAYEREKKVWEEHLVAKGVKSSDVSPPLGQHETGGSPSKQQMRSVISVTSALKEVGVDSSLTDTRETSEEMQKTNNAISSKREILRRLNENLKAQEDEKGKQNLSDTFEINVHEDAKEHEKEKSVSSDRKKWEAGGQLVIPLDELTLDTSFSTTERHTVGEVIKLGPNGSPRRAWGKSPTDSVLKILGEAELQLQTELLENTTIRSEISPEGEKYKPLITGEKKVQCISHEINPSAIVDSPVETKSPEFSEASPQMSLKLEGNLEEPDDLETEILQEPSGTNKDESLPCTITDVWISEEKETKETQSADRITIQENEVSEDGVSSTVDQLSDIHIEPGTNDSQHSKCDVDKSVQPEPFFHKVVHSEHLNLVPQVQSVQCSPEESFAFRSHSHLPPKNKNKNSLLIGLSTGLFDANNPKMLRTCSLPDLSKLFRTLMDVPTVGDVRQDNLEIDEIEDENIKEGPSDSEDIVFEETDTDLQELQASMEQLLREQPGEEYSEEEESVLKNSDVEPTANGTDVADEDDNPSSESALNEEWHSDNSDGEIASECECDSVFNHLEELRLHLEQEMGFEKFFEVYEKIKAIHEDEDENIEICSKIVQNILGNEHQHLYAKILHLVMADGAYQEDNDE

## CCN(CC)CCCCNc1ncc2cc(-c3cc(OC)cc(OC)c3)c(NC(=O)NC(C)(C)C)nc2n1
[1]
  % of control: 100%

## Cn1cc(-n2cnc3c(NCc4nc5cc(Cl)c(Cl)cc5[nH]4)nc(N4CCOCC4)nc32)cn1
[2]
  % of inhibition: -117%

## CC[C@@H]1[C@H](F)C(=O)N[C@@H]1COc1nccc2cc(C(N)=O)c(OC)cc12 [ZIMLOVISERTIB]
[3]; at 0.01 µM
  % of inhibition: -0.6%
[3]; at 0.04 µM
  % of inhibition: 7%
[3]; at 0.2 µM
  % of inhibition: 14.4%
[3]; at 1 µM
  % of inhibition: 4.9%
[3]; at 5 µM
  % of inhibition: -6.3%
